Measurements: patent US20250263436A1, “BROAD-SPECTRUM ANTIVIRAL DRUG FOR ENTEROVIRUS, AND APPLICATION” (WUHAN INSTITUTE OF VIROLOGY, CHINESE ACADEMY OF SCIENCES, priority 2020, published 2025)
Several values for one entry are separate records, joined by “and”; a condition that tells them apart may be missing. Equal values may be shown once. Where no end group is shown, it is not given here.

Tested on: EV71
Test: Inhibitory activity on EV71 in RD cells by CCK8 method
Assay type: cell-based, enterovirus 71 (EV71)
Settings: for IC50: EV71 in RD cells, CCK8 method; for Inhibition rate on EV71 virus (%): RD cells, 0.1 MOI, 24 h, CCK8
Method: (1) RD cells were plated in a 96-well plate at 100 μL per well.
(2) When the cells grew to a confluence of 70%-80%, the DMEM medium containing 10% serum was replaced with a DMEM medium containing 2% serum.
(3) The polypeptide drug was gradiently diluted with the DMEM containing 2% FBS into concentrations of 0.15625 μM, 0.3125 μM, 0.625 μM, 1.25 μM, 2.5 μM, and 5 μM, and then added to a new 96-well plate at 100 μL per well, with 3 replicate wells for each concentration.
(4) The diluted virus was added to the above wells at 100 μL per well. The wells with no drug and no virus added and the wells with no drug but virus added were set as controls respectively, with a final concentration of virus of 0.1 MOI.
(4) The mixture was transferred into the 96-well plate plated with cells for another 24 h of culture, and the inhibitory activity of the polypeptide on the virus was determined by a CCK8 kit.
(5) The inhibition rates of different concentrations of the polypeptides on virus infection were calculated according to a calculation formula of: inhibition rate of polypeptide=(well with drug-well with virus)×100%/(well with no drug-well with virus).
(3) The polypeptide drug was gradiently diluted with the DMEM containing 2% FBS into concentrations of 0.15625 μM, 0.3125 μM, 0.625 μM, 1.25 μM, 2.5 μM, and 5 μM, and then added to a new 96-well plate at 100 μL per well, with 3 replicate wells for each concentration. (4) The diluted virus was added to the above wells at 100 μL per well. The wells with no drug and no virus added and the wells with no drug but virus added were set as controls respectively, with a final concentration of virus of 0.1 MOI.

Compound: CC[C@H](C)[C@H](NC(=O)[C@H](C)NC(=O)[C@H](CO)NC(=O)[C@H](CCCNC(=N)N)NC(=O)[C@H](CC(N)=O)NC(=O)[C@H](CC(N)=O)NC(=O)[C@H](Cc1ccc(O)cc1)NC(=O)[C@H](CCC(=O)O)NC(=O)CNC(=O)[C@H](CO)NC(=O)CNC(=O)[C@H](CCCNC(=N)N)NC(=O)[C@H](CCCNC(=N)N)NC(=O)[C@H](CCCNC(=N)N)NC(=O)[C@H](CCC(N)=O)NC(=O)[C@H](CCCNC(=N)N)NC(=O)[C@H](CCCNC(=N)N)NC(=O)[C@H](CCCCN)NC(=O)[C@H](CCCCN)NC(=O)[C@H](CCCNC(=N)N)NC(=O)CNC(=O)[C@@H](N)Cc1ccc(O)cc1)C(=O)NCC(=O)N[C@@H](CC(N)=O)C(=O)N[C@H](C(=O)N[C@H](C(=O)N[C@@H](CCC(=O)O)C(=O)N[C@@H](C)C(=O)N[C@@H](CC(C)C)C(=O)N[C@@H](Cc1ccccc1)C(=O)N[C@@H](CCC(N)=O)C(=O)O)[C@@H](C)CC)[C@@H](C)O [EQ]
- IC50: 1830 nM
- Inhibition rate on EV71 virus (%) (polypeptide 0.15625 μM): 6.885% and 4.675% and 10.9434%
- Inhibition rate on EV71 virus (%) (polypeptide 0.3125 μM): 10.2126% and 12.8194% and 16.4536%
- Inhibition rate on EV71 virus (%) (polypeptide 0.625 μM): 21.5745% and 20.64% and 25.9399%
- Inhibition rate on EV71 virus (%) (polypeptide 1.25 μM): 31.5814% and 30.7778% and 32.9503%
- Inhibition rate on EV71 virus (%) (polypeptide 2.5 μM): 62.8263% and 54.1779% and 55.7124%
- Inhibition rate on EV71 virus (%) (polypeptide 5 μM): 86.8541% and 90.3885% and 78.0023%

Compound: CC[C@H](C)[C@H](NC(=O)[C@H](C)NC(=O)[C@H](CO)NC(=O)[C@H](CCCNC(=N)N)NC(=O)[C@H](CC(N)=O)NC(=O)[C@H](CC(N)=O)NC(=O)CNC(=O)[C@H](CO)NC(=O)CNC(=O)[C@H](CCCNC(=N)N)NC(=O)[C@H](CCCNC(=N)N)NC(=O)[C@H](CCCNC(=N)N)NC(=O)[C@H](CCC(N)=O)NC(=O)[C@H](CCCNC(=N)N)NC(=O)[C@H](CCCNC(=N)N)NC(=O)[C@H](CCCCN)NC(=O)[C@H](CCCCN)NC(=O)[C@H](CCCNC(=N)N)NC(=O)CNC(=O)[C@@H](N)Cc1ccc(O)cc1)C(=O)NCC(=O)N[C@@H](CC(N)=O)C(=O)N[C@H](C(=O)N[C@H](C(=O)N[C@@H](CCC(=O)O)C(=O)N[C@@H](C)C(=O)N[C@@H](CC(C)C)C(=O)N[C@@H](Cc1ccccc1)C(=O)N[C@@H](CCC(N)=O)C(=O)O)[C@@H](C)CC)[C@@H](C)O [NQ]
- IC50: 1900 nM
- Inhibition rate on EV71 virus (%) (polypeptide 0.15625 μM): 4.278% and 5.368% and 8.337%
- Inhibition rate on EV71 virus (%) (polypeptide 0.3125 μM): 11.5056% and 17.809% and 19.7228%
- Inhibition rate on EV71 virus (%) (polypeptide 0.625 μM): 16.7886% and 21.2091% and 24.9365%
- Inhibition rate on EV71 virus (%) (polypeptide 1.25 μM): 41.6538% and 40.8779% and 50.5607%
- Inhibition rate on EV71 virus (%) (polypeptide 2.5 μM): 51.933% and 60.1502% and 57.7744%
- Inhibition rate on EV71 virus (%) (polypeptide 5 μM): 60.6122% and 74.6708% and 75.3331%

Compound: CC[C@H](C)[C@H](NC(=O)[C@H](C)NC(=O)[C@H](CO)NC(=O)[C@H](CCCNC(=N)N)NC(=O)CNC(=O)[C@H](CO)NC(=O)CNC(=O)[C@H](CCCNC(=N)N)NC(=O)[C@H](CCCNC(=N)N)NC(=O)[C@H](CCCNC(=N)N)NC(=O)[C@H](CCC(N)=O)NC(=O)[C@H](CCCNC(=N)N)NC(=O)[C@H](CCCNC(=N)N)NC(=O)[C@H](CCCCN)NC(=O)[C@H](CCCCN)NC(=O)[C@H](CCCNC(=N)N)NC(=O)CNC(=O)[C@@H](N)Cc1ccc(O)cc1)C(=O)NCC(=O)N[C@@H](CC(N)=O)C(=O)N[C@H](C(=O)N[C@H](C(=O)N[C@@H](CCC(=O)O)C(=O)N[C@@H](C)C(=O)N[C@@H](CC(C)C)C(=O)N[C@@H](Cc1ccccc1)C(=O)N[C@@H](CCC(N)=O)C(=O)O)[C@@H](C)CC)[C@@H](C)O [RSQ]
- IC50: 2600 nM
- Inhibition rate on EV71 virus (%) (polypeptide 0.15625 μM): 1.471% and 6.588% and 2.826%
- Inhibition rate on EV71 virus (%) (polypeptide 0.3125 μM): 11.34% and 21.2746% and 16.4228%
- Inhibition rate on EV71 virus (%) (polypeptide 0.625 μM): 18.633% and 25.8298% and 26.1918%
- Inhibition rate on EV71 virus (%) (polypeptide 1.25 μM): 40.5468% and 36.4575% and 35.2676%
- Inhibition rate on EV71 virus (%) (polypeptide 2.5 μM): 53.4848% and 40.7778% and 47.2122%
- Inhibition rate on EV71 virus (%) (polypeptide 5 μM): 58.6022% and 68.9642% and 62.4952%

Compound: CC[C@H](C)[C@H](NC(=O)[C@H](C)NC(=O)[C@H](CO)NC(=O)CNC(=O)[C@H](CO)NC(=O)CNC(=O)[C@H](CCCNC(=N)N)NC(=O)[C@H](CCCNC(=N)N)NC(=O)[C@H](CCCNC(=N)N)NC(=O)[C@H](CCC(N)=O)NC(=O)[C@H](CCCNC(=N)N)NC(=O)[C@H](CCCNC(=N)N)NC(=O)[C@H](CCCCN)NC(=O)[C@H](CCCCN)NC(=O)[C@H](CCCNC(=N)N)NC(=O)CNC(=O)[C@@H](N)Cc1ccc(O)cc1)C(=O)NCC(=O)N[C@@H](CC(N)=O)C(=O)N[C@H](C(=O)N[C@H](C(=O)N[C@@H](CCC(=O)O)C(=O)N[C@@H](C)C(=O)N[C@@H](CC(C)C)C(=O)N[C@@H](Cc1ccccc1)C(=O)N[C@@H](CCC(N)=O)C(=O)O)[C@@H](C)CC)[C@@H](C)O [SAQ]
- IC50: 2900 nM
- Inhibition rate on EV71 virus (%) (polypeptide 0.15625 μM): 3.547% and 2.726% and 6.819%
- Inhibition rate on EV71 virus (%) (polypeptide 0.3125 μM): 8.964% and 7.902% and 11.0435%
- Inhibition rate on EV71 virus (%) (polypeptide 0.625 μM): 14.4055% and 11.5364% and 18.402%
- Inhibition rate on EV71 virus (%) (polypeptide 1.25 μM): 27.4779% and 24.0778% and 33.4848%
- Inhibition rate on EV71 virus (%) (polypeptide 2.5 μM): 47.0158% and 47.2468% and 36.2572%
- Inhibition rate on EV71 virus (%) (polypeptide 5 μM): 75.1367% and 61.8367% and 63.2191%

Compound: CC[C@H](C)[C@H](NC(=O)[C@H](C)NC(=O)[C@H](CO)NC(=O)[C@H](CCCNC(=N)N)NC(=O)[C@H](CC(N)=O)NC(=O)[C@H](CC(N)=O)NC(=O)[C@H](Cc1ccc(O)cc1)NC(=O)CNC(=O)[C@H](CO)NC(=O)CNC(=O)[C@H](CCCNC(=N)N)NC(=O)[C@H](CCCNC(=N)N)NC(=O)[C@H](CCCNC(=N)N)NC(=O)[C@H](CCC(N)=O)NC(=O)[C@H](CCCNC(=N)N)NC(=O)[C@H](CCCNC(=N)N)NC(=O)[C@H](CCCCN)NC(=O)[C@H](CCCCN)NC(=O)[C@H](CCCNC(=N)N)NC(=O)CNC(=O)[C@@H](N)Cc1ccc(O)cc1)C(=O)NCC(=O)N[C@@H](CC(N)=O)C(=O)N[C@H](C(=O)N[C@H](C(=O)N[C@@H](CCC(=O)O)C(=O)N[C@@H](C)C(=O)N[C@@H](CC(C)C)C(=O)N[C@@H](Cc1ccccc1)C(=O)N[C@@H](CCC(N)=O)C(=O)O)[C@@H](C)CC)[C@@H](C)O [YQ]
- IC50: 1960 nM
- Inhibition rate on EV71 virus (%) (polypeptide 0.15625 μM): 5.8298% and 7.33% and 11.0089%
- Inhibition rate on EV71 virus (%) (polypeptide 0.3125 μM): 15.102% and 10.7124% and 13.3881%
- Inhibition rate on EV71 virus (%) (polypeptide 0.625 μM): 23.6157% and 20.9642% and 29.1606%
- Inhibition rate on EV71 virus (%) (polypeptide 1.25 μM): 30.9365% and 28.1124% and 32.0401%
- Inhibition rate on EV71 virus (%) (polypeptide 2.5 μM): 62.0331% and 53.8159% and 52.1987%
- Inhibition rate on EV71 virus (%) (polypeptide 5 μM): 80.0886% and 71.2711% and 87.578%

Compound: YGRKKRRQRRRGSGAIGNTIEALFQ [AQ]
- IC50: 2990 nM
- Inhibition rate on EV71 virus (%) (polypeptide 0.15625 μM): 9.888% and 7.506% and 5.9715%
- Inhibition rate on EV71 virus (%) (polypeptide 0.3125 μM): 15.9607% and 11.702% and 12.6022%
- Inhibition rate on EV71 virus (%) (polypeptide 0.625 μM): 26.3573% and 23.7158% and 19.5264%
- Inhibition rate on EV71 virus (%) (polypeptide 1.25 μM): 33.3847% and 31.7366% and 38.7678%
- Inhibition rate on EV71 virus (%) (polypeptide 2.5 μM): 58.9642% and 46.161% and 41.3092%
- Inhibition rate on EV71 virus (%) (polypeptide 5 μM): 51.0435% and 51.8675% and 69.1952%

Compound: YGRKKRRQRRRGSGGNTIEALFQ [GQ]
- IC50: 1780 nM
- Inhibition rate on EV71 virus (%) (polypeptide 0.15625 μM): 7.219% and 10.3851% and 5.4678%
- Inhibition rate on EV71 virus (%) (polypeptide 0.3125 μM): 14.8883% and 12.0678% and 14.91%
- Inhibition rate on EV71 virus (%) (polypeptide 0.625 μM): 28.8333% and 30.5125% and 26.48%
- Inhibition rate on EV71 virus (%) (polypeptide 1.25 μM): 43.1263% and 40.6161% and 31.07%
- Inhibition rate on EV71 virus (%) (polypeptide 2.5 μM): 51.8367% and 58.9472% and 57.2507%
- Inhibition rate on EV71 virus (%) (polypeptide 5 μM): 71.5094% and 77.9438% and 84.7439%

Compound: YGRKKRRQRRRGSGIEALFQ [IEQ]
- IC50: 2480 nM
- Inhibition rate on EV71 virus (%) (polypeptide 0.15625 μM): 11.724% and 8.44% and 7.627%
- Inhibition rate on EV71 virus (%) (polypeptide 0.3125 μM): 18.8643% and 15.5487% and 10.6223%
- Inhibition rate on EV71 virus (%) (polypeptide 0.625 μM): 20.7161% and 25.7224% and 19.5166%
- Inhibition rate on EV71 virus (%) (polypeptide 1.25 μM): 33.6936% and 35.484% and 28.4286%
- Inhibition rate on EV71 virus (%) (polypeptide 2.5 μM): 45.6995% and 48.4526% and 57.4377%
- Inhibition rate on EV71 virus (%) (polypeptide 5 μM): 69.4739% and 61.3527% and 68.272%

Compound: YGRKKRRQRRRGSGIGNTIEALFQ [IQ]
- IC50: 1640 nM
- Inhibition rate on EV71 virus (%) (polypeptide 0.15625 μM): 12.0331% and 13.5849% and 7.368%
- Inhibition rate on EV71 virus (%) (polypeptide 0.3125 μM): 18.7401% and 22.4297% and 22.9573%
- Inhibition rate on EV71 virus (%) (polypeptide 0.625 μM): 26.0539% and 31.1744% and 34.8606%
- Inhibition rate on EV71 virus (%) (polypeptide 1.25 μM): 41.6022% and 42.578% and 47.4848%
- Inhibition rate on EV71 virus (%) (polypeptide 2.5 μM): 55.7952% and 50.9781% and 60.5503%
- Inhibition rate on EV71 virus (%) (polypeptide 5 μM): 73.2884% and 68.7332% and 83.2884%
